Experiments:
Format in all cases: in vivo
male Cy/+ rat [1] = experiment: Kidney assessment (cyst volume, fibrosis, kidney weight, histology) in male Cy/+ rats; details: for Cyst Vol / Cyst Vol as a % of BW / Total Kidney weight: at sacrifice; for Cyst Vol / Cyst Vol as a % of BW / Total Kidney weight / Fibrosis Score: n = 7-8, mean ± SD; for Histologic appearance of the cysts (FIG. 7): representative kidney sections, compared with control cystic animals; for Fibrosis Score: semi-quantitative score 0-4+, picrosirius red
Source text: The Cy rat is a Han:SPRD rat with a spontaneous genetic mutation called Cy. These animals develop progressive kidney disease due to the formation of multiple kidney tubule cysts that arise from both the proximal and later the distal tubule. The colony of rats has been maintained through successive breeding of two heterozygous Cy/+ rats. This is an autosomal dominant gene, such that at birth, ¼ of the animals are normal, ½ are heterozygotes (Cy/+) and ¼ are homozygotes (Cy/Cy). Homozygotes (Cy/Cy) of either sex are easily identified after approximately 10 days of age by abdominal palpation and elevations in blood urea nitrogen (BUN), a finding used to verify parental heterozygosity for PKD. Homozygous Cy/Cy rats develop massively enlarged kidneys and severe azotemia and die by 4 weeks of age. Heterozygote male animals develop progressive chronic kidney disease (CKD) with rise in blood urea nitrogen (BUN) by 10 weeks and death from uremia by 40-50 weeks. Heterozygote female animals develop progressive CKD with rise in BUN not detected until 20 weeks, with death at 80 weeks. […] Average food intake was 50 g/kg/day. At the time of sacrifice, rats were anesthetized with sodium pentobarbitol ([…], i.p.) and weighed. Blood was obtained for determination of serum creatinine, BUN, intact PTH, Ca and PO4. The left kidney was removed, weighed and frozen in liquid nitrogen for subsequent batch analyses. The right kidney was perfusion fixed with 4% paraformaldehyde in phosphate buffer (ph 7.4). The tissue was embedded in paraffin for histological studies. Cyst volume density was determined by point count stereology from randomly selected fields from hematoxylin and cosin (H&E) stained slides. Fibrosis was graded semi-quantitatively (scored 0-4+) from picrosirius red stained slides. The reviewer was blinded to the treatment group. Both measure were also standardized by body weight (for cyst volume) or kidney weight (for fibrosis). Four micron transverse tissue section of the kidney, including cortex and medulla, was stained with hematoxylin-cosin. Five fields/sections, from cortex through outer medulla, were evaluated for the degree of cystic change. Other sections were stained with picrosirius red for the evaluation of fibrosis. Fibrosis was scored (0-4+) for the relative amount of collagen within the interstitium from picrosirius red staining of collagen fibers. These assessments are the standard methods used to assess response to therapy in animal models of kidney disease (Gattone et al, Nature Medicine 9: 1323-6, 2003). Cy−/+ (cystic) male rats were assigned to one of four treatment groups (Table 5) and were phenotyped (by BUN) at 10 weeks and again at 20 weeks to ensure animals were cystic. […] Comparator groups included Compound A with calcium in the drinking water versus calcium alone. These comparator groups allow differentiation of the effects of changes in PTH and calcium from a direct action of the calcimimetic. FIG. 1 schematically represents the study design. At 10 weeks, animals were phenotyped. At 20 weeks, animals were started on the treatment arm. Half the animals were sacrificed at 34 weeks, half the animals were sacrificed 38 weeks. At each time point, samples from 8 animals were perfusion fixed with paraformaldehyde for CT scan, bone histology and aorta histology, samples from 8 animals were saline perfused for HCl extraction to determine calcium and phosphate content, and blood samples from 16 animals were collected for blood tests (PTH, calcium, phosphorus, BUN). Animals in the paraformaldehyde fixation group received tetracycline administration four and one week prior to sacrifice to label the bone for morphometric analyses. For the purpose of this application, only the laboratory and kidney end points will be presented. All data was analyzed by a statistician. The BUN was analyzed only at week 20 and end point (week 34 or 38) and was analyzed by ANCOVA adjusting for baseline (week 20) values. […]

male Cy/+ rat [2] = experiment: Blood laboratory values in male Cy/+ rats treated from week 20; details: for BUN / Calcium / Phosphorus / PTH: 38 week time point, treatment from week 20; for PTH: Compound A 0.05% w/w in chow, 3% Ca gluconate in water, mean ± SD
Source text: The Cy rat is a Han:SPRD rat with a spontaneous genetic mutation called Cy. These animals develop progressive kidney disease due to the formation of multiple kidney tubule cysts that arise from both the proximal and later the distal tubule. The colony of rats has been maintained through successive breeding of two heterozygous Cy/+ rats. This is an autosomal dominant gene, such that at birth, ¼ of the animals are normal, ½ are heterozygotes (Cy/+) and ¼ are homozygotes (Cy/Cy). Homozygotes (Cy/Cy) of either sex are easily identified after approximately 10 days of age by abdominal palpation and elevations in blood urea nitrogen (BUN), a finding used to verify parental heterozygosity for PKD. Homozygous Cy/Cy rats develop massively enlarged kidneys and severe azotemia and die by 4 weeks of age. Heterozygote male animals develop progressive chronic kidney disease (CKD) with rise in blood urea nitrogen (BUN) by 10 weeks and death from uremia by 40-50 weeks. Heterozygote female animals develop progressive CKD with rise in BUN not detected until 20 weeks, with death at 80 weeks. […] Average food intake was 50 g/kg/day. At the time of sacrifice, rats were anesthetized with sodium pentobarbitol ([…], i.p.) and weighed. Blood was obtained for determination of serum creatinine, BUN, intact PTH, Ca and PO4. The left kidney was removed, weighed and frozen in liquid nitrogen for subsequent batch analyses. The right kidney was perfusion fixed with 4% paraformaldehyde in phosphate buffer (ph 7.4). The tissue was embedded in paraffin for histological studies. Cyst volume density was determined by point count stereology from randomly selected fields from hematoxylin and cosin (H&E) stained slides. Fibrosis was graded semi-quantitatively (scored 0-4+) from picrosirius red stained slides. The reviewer was blinded to the treatment group. Both measure were also standardized by body weight (for cyst volume) or kidney weight (for fibrosis). Plasma urea and creatinine were determined using colorimetric assays (Urea-Sigma 640 creatinine kit). Intact PTH was determined by ELISA; Alpacoa, and Ca and PO4 were done with using colorimeteric analyses (Sigma). Cy−/+ (cystic) male rats were assigned to one of four treatment groups (Table 5) and were phenotyped (by BUN) at 10 weeks and again at 20 weeks to ensure animals were cystic. […] Comparator groups included Compound A with calcium in the drinking water versus calcium alone. These comparator groups allow differentiation of the effects of changes in PTH and calcium from a direct action of the calcimimetic. FIG. 1 schematically represents the study design. At 10 weeks, animals were phenotyped. At 20 weeks, animals were started on the treatment arm. Half the animals were sacrificed at 34 weeks, half the animals were sacrificed 38 weeks. At each time point, samples from 8 animals were perfusion fixed with paraformaldehyde for CT scan, bone histology and aorta histology, samples from 8 animals were saline perfused for HCl extraction to determine calcium and phosphate content, and blood samples from 16 animals were collected for blood tests (PTH, calcium, phosphorus, BUN). Animals in the paraformaldehyde fixation group received tetracycline administration four and one week prior to sacrifice to label the bone for morphometric analyses. For the purpose of this application, only the laboratory and kidney end points will be presented. All data was analyzed by a statistician. The BUN was analyzed only at week 20 and end point (week 34 or 38) and was analyzed by ANCOVA adjusting for baseline (week 20) values. The PTH, calcium, and phosphorus were analyzed at baseline (week 20), a mid point, and end point (week 34, 38). These values were compared by a mixed model adjusting for baseline values and time point. The kidney assessments were only measured at end point at the time of sacrifice, and therefore the measures were compared by ANCOVA and within group comparisons.

male Cy/+ rat [3] = experiment: Kidney assessment (cyst volume, fibrosis, kidney weight, histology) in male Cy/+ rats; details: ANOVA with post group comparisons, all p<0.01, HCl

Row | Structure (SMILES) | Cyst Vol (male Cy/+ rat [1]) | Cyst Vol as a % of BW (male Cy/+ rat [1]) | Total Kidney weight (male Cy/+ rat [1]) | Histologic appearance of the cysts (FIG. 7) (male Cy/+ rat [1]) | Fibrosis Score (male Cy/+ rat [1]) | BUN (male Cy/+ rat [2]) | Calcium (male Cy/+ rat [2]) | Phosphorus (male Cy/+ rat [2]) | PTH (male Cy/+ rat [2]) | Change in BUN (week 20 to week 38) = Delta BUN (male Cy/+ rat [2]) | Cyst volume and fibrosis compared to control (FIGS. 3-6) (male Cy/+ rat [3]) | Cyst volume and fibrosis compared to control (FIGS. 3-6) (male Cy/+ rat [3]; listed as compound A)
1 | COc1cccc([C@@H](C)NCCCc2ccccc2Cl)c1.Cl [Compound A, N-(3-[2-chlorophenyl]-propyl)-R-α-methyl-3-methoxybenzylamine HCl] | 3.1 ± 0.55 cc | 0.6 ± 0.1% | 9.5 ± 1.4 g | noticeable decrease in cyst size and number | 2.6 ± 0.2 | 79 ± 21 mg/dL | 8.2 ± 1.5 mg/dL | 5.9 ± 1.4 mg/dL | 131 ± 156 pg/mL | 31 ± 15 mg/dL | reduces cyst volume and fibrosis | magnitude was significantly greater
2 | O=C([O-])[C@H](O)[C@@H](O)[C@H](O)[C@H](O)CO.O=C([O-])[C@H](O)[C@@H](O)[C@H](O)[C@H](O)CO.[Ca+2] [Ca alone, reference compound] | 4.0 ± 0.9 cc | 0.9 ± 0.2% | 10.1 ± 1.4 g | cysts are a little smaller than control animals but there appears to be a similar number | 2.8 ± 0.2 | 69 ± 18 mg/dL | 11.2 ± 1.5 mg/dL | 4.3 ± 0.8 mg/dL | 39 ± 23 pg/mL | 27 ± 11 mg/dL | – | –

— patent publication US20080027052A1, “METHODS FOR TREATING CYSTIC KIDNEY DISEASE” (priority 2006, published 2008)
